This passage reports activation results from US4920215A, “Antibiotic produced by fermentation” (Pfizer Inc., priority 1987, dated 1990).

The assay deals with rumen fluid. Description: In vitro rumen technique, propionic acid production. To be noted: 16 h, pH 6.8, read-out: increase of propionic acid over the control.

For the molecule `CC[C@@H](C(=O)[C@@H](C)[C@@H](O)[C@H](C)[C@@H]1O[C@@H]([C@@H](CC)C(=O)O)CC[C@@H]1C)[C@H]1O[C@]2(C=C[C@@H](O)[C@]3(CC[C@@](C)([C@H]4CC[C@](O)(CC)[C@H](C)O4)O3)O2)[C@H](C)C[C@@H]1C` [salinomycin], the activation at 10 µg/mL was approximately 61%.
